biological target: Glycogen synthase kinase-3 beta (Homo sapiens, UniProt P49841); experiment: GSK3beta kinase inhibitor potency, dose response, biochemical, luminescence, cell-free homogeneous, retest (AID 434954)
Sequence (P49841 whole entry): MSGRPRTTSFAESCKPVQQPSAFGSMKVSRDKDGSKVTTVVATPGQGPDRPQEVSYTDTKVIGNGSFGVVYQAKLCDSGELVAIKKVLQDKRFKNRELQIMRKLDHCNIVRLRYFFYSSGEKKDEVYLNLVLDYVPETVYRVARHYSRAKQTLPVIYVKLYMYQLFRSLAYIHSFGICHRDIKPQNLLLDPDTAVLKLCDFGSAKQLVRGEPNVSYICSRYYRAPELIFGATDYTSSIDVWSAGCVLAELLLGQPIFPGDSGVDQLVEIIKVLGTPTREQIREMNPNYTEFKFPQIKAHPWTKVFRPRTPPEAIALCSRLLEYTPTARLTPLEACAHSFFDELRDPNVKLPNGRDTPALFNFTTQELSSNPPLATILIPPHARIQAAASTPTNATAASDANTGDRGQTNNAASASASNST

Compound	EC50 [µM]
O=C(CSc1nnc(CNC(=O)c2c(F)cccc2F)o1)NCc1ccc(F)cc1	> 300
C[C@H]1[C@@H](c2ccccc2)O[C@@H](c2ccccc2Br)N1C [MLS001242758]	> 300
Cc1ccc2c(c1)cc1c(=O)n(CC(=O)NCCN3CCCC3)nc(C)n12	> 300
CCOC(=O)c1nnn(-c2nonc2N)c1CSc1ccc(C)cc1 [SMR000020597]	160
CCCN(CCC)Cc1c(C(=O)NN=Cc2ccncc2)nnn1-c1nonc1N [1-(4-amino-1,2,5-oxadiazol-3-yl)-5-[(dipropylamino)methyl]-N-(pyridin-4-ylmethylideneamino)triazole-4-carboxamide]	0.879
CCn1c(COc2ccccc2)nnc1SCC(=O)NC1CC1	> 300
O=C(Nc1ccccn1)Nc1ccccc1[N+](=O)[O-] [N-(2-nitrophenyl)-N'-pyridin-2-ylurea]	> 300
CCOC(=O)CSc1ccc2nnc(-c3ccncc3)n2n1	1.9
N#Cc1c2n(c3c(S)ncnc13)CCCCC2 [4-sulfanylidene-1,6,7,8,9,10-hexahydropyrimido[3,4]pyrrolo[3,5-a]azepine-11-carbonitrile]	0.304
Nc1nonc1-n1nnc(C(=O)NN=Cc2ccc(Cl)cc2Cl)c1CN1CCCCC1 [MLS000950038]	> 300
CCCCn1nc(NC(=O)CCC)c2cc3cc(OC)ccc3nc21 [MLS001214871]	> 300
Cc1ccc(C)c(S(=O)(=O)NCc2ccc(C(=O)N3CC(C)OC(C)C3)cc2)c1 (centres undefined) [N-[[4-(2,6-dimethylmorpholin-4-yl)carbonylphenyl]methyl]-2,5-dimethyl-benzenesulfonamide]	> 300
O=C1NC(=O)N(Cc2ccc(F)cc2)C(=O)C1=CNCCN1CCCCC1 [MLS000040945]	> 300
COc1ccc(-c2cn3c(C)c(C(=O)Nc4ccncc4)sc3n2)cc1 [6-(4-methoxyphenyl)-3-methyl-N-(4-pyridyl)imidazo[2,1-b]thiazole-2-carboxamide]	> 300
O=C1Nc2cc(C(=O)NCCCN3CCOCC3)ccc2S/C1=C/c1ccccc1F [(2E)-2-[(2-fluorophenyl)methylidene]-N-(3-morpholin-4-ylpropyl)-3-oxo-4H-1,4-benzothiazine-6-carboxamide]	18.2
CCOC(=O)c1c(C)[nH]c(C)c1S(=O)(=O)N(C)CC(=O)Nc1ccccc1 [SMR000630545]	> 300
CCOC(=O)C(C)Sc1ccc2nnc(-c3ccc(F)cc3)n2n1 (centres undefined) [2-[[3-(4-fluorophenyl)-[1,2,4]triazolo[4,3-b]pyridazin-6-yl]thio]propanoic acid ethyl ester]	19.3
CCN(CC)CCOC(=O)c1ccc(NC(=S)NC(=O)C=Cc2ccco2)cc1 [MLS001178772]	> 300
c1cncc(-c2nc(NCC3CCCO3)c3ccccc3n2)c1 (centres undefined)	> 300
COc1ccccc1N1CCN(/N=C/c2ccc(Cl)c([N+](=O)[O-])c2)CC1	> 300
Cc1cccc(C(=O)NCC(c2ccco2)N2CCc3ccccc32)c1 (centres undefined) [MLS001237444]	> 300
O=C(Nc1nnc(-c2cc(Cl)ccc2Cl)o1)c1ccco1	> 300
Cn1nnnc1Sc1c(Cl)cccc1[N+](=O)[O-] [5-({2-chloro-6-nitrophenyl}sulfanyl)-1-methyl-1H-tetraazole]	> 300
Cc1ccc(-c2nn(-c3ccccc3)cc2C=Nn2c(-c3cccs3)n[nH]c2=S)cc1 [4-({[3-(4-methylphenyl)-1-phenyl-1H-pyrazol-4-yl]methylene}amino)-5-(2-thienyl)-2,4-dihydro-3H-1,2,4-triazole-3-thione]	> 300
N#Cc1c(N)nc2c(c1N)=C(N)SC1=NC(=O)CC(c3ccccc3)C=21 (centres undefined) [SMR000147833]	> 300

Compound	EC50 [µM]
COc1ccc(C(C)=NNC(=O)CNC(=O)Cc2ccccc2)c(OC)c1 [N-[2-[2-[1-(2,4-dimethoxyphenyl)ethylidene]hydrazinyl]-2-oxoethyl]-2-phenylacetamide]	> 300
O=C(Nc1ccccn1)C(=O)Nc1ccccn1 [N,N'-dipyridin-2-ylethanediamide]	> 300
COc1ccc2c(c1)-c1c(ssc1=S)C(C)(C)N2S(=O)(=O)c1ccc(C)cc1 [8-methoxy-4,4-dimethyl-5-(4-methylphenyl)sulfonyl-[1,2]dithiolo[3,4-c]quinoline-1-thione]	> 300
c1ccc2c(CSc3nnc(-c4ccncc4)o3)cccc2c1 [2-(naphthalen-1-ylmethylsulfanyl)-5-pyridin-4-yl-1,3,4-oxadiazole]	29.1
CN(C)/N=N/c1ccc(S(N)(=O)=O)cc1 [SMR000272943]	> 300
Cc1cccc(C(=O)Nc2ccc(O)c3c(=O)cc(-c4ccccc4Cl)oc23)c1	> 300
COc1cccc2cc(CC(=O)c3ccccc3)c(=O)oc12 [8-methoxy-3-(2-oxo-2-phenylethyl)-2H-chromen-2-one]	> 300
O=C(NNC(=O)C1CC1)c1cc2cc3ccccc3nc2s1 [MLS000763570]	> 300
COCCCn1c(-c2ccc(OC)cc2)nc2nc3ccccc3nc21	> 300
CCC(=NNC(=S)Nc1cccc(C)c1)c1ccccc1	> 300
COc1cc([CH-]N=[O+]C)ccc1Oc1ccc([N+](=O)[O-])cc1[N+](=O)[O-] [MLS000699890]	> 300
CSc1nc(SCC(N)=O)c2c3c(sc2n1)CN(C)CC3	5.08
Cc1nn(CC(=O)N2CCN(c3ccccn3)CC2)c(=O)c2cc3sccc3n12 [1-methyl-3-[2-oxidanylidene-2-(4-pyridin-2-ylpiperazin-1-yl)ethyl]thieno[3,4]pyrrolo[3,5-c][1,2,4]triazin-4-one]	> 300
CC(C)CCSc1nnc(N)s1 [MLS000861787]	> 300
CCOC(=O)c1c(C)[nH]c(C(=O)CSc2nccc(C)n2)c1C [MLS000391683]	> 300
Cc1ccc(C(=O)NN=Cc2ccc(-c3ccc(Cl)c(Cl)c3)o2)cn1 [SMR000431370]	> 300
O=C(O)c1ccccc1Nc1ccnc(C(F)(F)F)c1 [2-[[2-(trifluoromethyl)-4-pyridinyl]amino]benzoic acid]	> 300
CCOC(=O)c1ccc(NC(=O)Nc2ccccn2)cc1 [MLS000679333]	> 300
O=C(O)c1cc(N=NCc2ccc(-c3ccc(F)cc3)o2)ccc1Cl [2-chloranyl-5-[2-[[5-(4-fluorophenyl)furan-2-yl]methylidene]hydrazinyl]benzoic acid]	> 300
Cc1c(Br)c([N+](=O)[O-])nn1CC(=O)Nc1c(C)n(C)n(-c2ccccc2)c1=O [2-(4-Bromo-5-methyl-3-nitro-pyrazol-1-yl)-N-(1,5-dimethyl-3-oxo-2-phenyl-2,3-dihydro-1H-pyrazol-4-yl)-acetamide]	> 300
CCCOc1cc(C)nc(-c2ccccc2O)n1 [(6E)-6-(6-methyl-4-propoxy-1H-pyrimidin-2-ylidene)-1-cyclohexa-2,4-dienone]	> 300
CSc1nnc2ccc(-c3cccs3)nn12 [SMR000324231]	> 300
Cc1csc(NC(=O)CN2C(=O)c3ccccc3C2=O)c1C(N)=O [2-[[2-(1,3-dioxo-2-isoindolyl)-1-oxoethyl]amino]-4-methyl-3-thiophenecarboxamide]	> 300
CNc1nc(N)c([N+](=O)[O-])c(NCC2CCCO2)n1 (centres undefined) [SMR000436173]	49.7
Cc1cccc(Nc2nc(N)c([N+](=O)[O-])c(NCc3ccccc3)n2)c1 [MLS000332785]	21.4

Compound	EC50 [µM]
CC(C)CNc1nc(N)c([N+](=O)[O-])c(N2CCCCCC2)n1 [6-(azepan-1-yl)-N2-(2-methylpropyl)-5-nitro-pyrimidine-2,4-diamine]	98
Cc1cc2c(N3CCCCC3C)ncnc2s1 (centres undefined) [SMR000033135]	> 300
Cc1[nH]n(-c2ccccc2)c(=O)c1/C=N/NC(=O)COc1ccccc1[N+](=O)[O-] [MLS000592191]	> 300
CN(CCO)c1cc(N2CCC3(CC2)OCCO3)c2nonc2c1[N+](=O)[O-] [MLS000584853]	68
CCOC(=O)CSc1ccc2nnc(-c3cccnc3)n2n1 [SMR000018940]	> 300
CCCc1nc2c([nH]1)c(=O)n(C)c(=O)n2C	> 300
CCC(OCC(O)CN1CCCCC1)c1ccccc1 (centres undefined)	> 300
CC(C)(C)C1CCc2onc(C(=O)Nc3ccc4c(c3)OCO4)c2C1 (centres undefined) [N-(1,3-benzodioxol-5-yl)-5-tert-butyl-4,5,6,7-tetrahydro-1,2-benzoxazole-3-carboxamide]	> 300
Cc1ccc(Cc2cnc(NC(=O)C3CCCO3)s2)cc1 (centres undefined) [SMR000141246]	17.4
CC1CCN(c2oc(-c3ccccc3Cl)nc2C#N)CC1 [SMR000041709]	> 300
O=C(/[O+]=N/[CH-]c1ccc(N2CCCCC2)c([N+](=O)[O-])c1)c1c(F)cccc1F [MLS000326582]	> 300
CCN(CC)Cc1c(C(=O)NN=Cc2ccccn2)nnn1-c1nonc1N	9.91
CCc1ccc(C(=O)c2cnc3ccc(OC)cc3c2N2CCN(CC)CC2)cc1 [(4-ethylphenyl)-[4-(4-ethylpiperazin-1-yl)-6-methoxy-quinolin-3-yl]methanone]	20.7
CCn1nc(NC(=O)c2cccs2)c2cc3ccccc3nc21 [MLS000674383]	> 300
COC(=O)c1nnn(-c2nonc2N)c1CSc1nnc(C)s1 [MLS000728193]	45.7
Cc1nc[nH]c1C(=O)NN=Cc1c(Cl)cccc1Cl [MLS001182271]	21.8
O=C1CN(c2nc(-c3cccnc3)nc3sc4c(c23)CCCC4)CCN1 [MLS000772211]	24.8
COc1ccc(S(=O)(=O)CC(=O)c2cc3cccc(C)c3oc2=O)cc1 [SMR000634140]	> 300
Cc1ccc(-c2nc(Nc3cccc(O)c3)c3ccccc3n2)cc1 [MLS001196546]	> 300
CCN(CC)C(=O)Cn1cc(C(=O)C(=O)Nc2ccc3c(c2)OCCO3)c2ccccc21	> 300
COc1ccc2c(c1)-c1c(sn(-c3ccc(OC)c(OC)c3)c1=S)C(C)(C)N2	> 300
CCCCOC(=O)C1C(C)=Nc2ncnn2C1c1cc(OC)c(OC)cc1OC (centres undefined) [butyl 5-methyl-7-(2,4,5-trimethoxyphenyl)-4,7-dihydro[1,2,4]triazolo[1,5-a]pyrimidine-6-carboxylate]	> 300
Cn1c(=S)n(CCC(=O)O)c2ccccc21 [SMR000273673]	> 300
COC(=O)c1ccc(O)cc1	> 300

From BindingDB's records for doi:10.7270/Q2TX3CTT (Broad Institute, 2010)
